ChEMBL document CHEMBL1135159, “Pyrazolo[3,4-d]pyrimidines containing an extended 3-substituent as potent inhibitors of Lck -- a selectivity insight” (Bioorg Med Chem Lett, 2002)

How the values were obtained:
[1] = biological target: T1, Vascular endothelial growth factor receptor 2 (Homo sapiens, UniProt P35968); assay: Inhibition of human VEGF-receptor 2 (kdr) kinase.
Mus musculus [2] = assay: Tested in vivo for inhibition ofTCR stimulated (alpha-CD3 mAb) IL-2 production in mice after oral dosing for 18 hr; type: functional; parameters: concentration or dose not given beside the values
Mus musculus [3] = assay: Tested in vivo for inhibition ofTCR stimulated (alpha-CD3 mAb) IL-2 production in mice after oral dosing for 8 hr; type: functional; parameters: concentration or dose not given beside the values
Mus musculus [4] = assay: Tested in vivo for inhibition ofTCR stimulated (alpha-CD3 mAb) IL-2 production in mice after oral dosing; type: functional
Homo sapiens = organism: Homo sapiens; assay: Inhibition of alpha-CD3 mAb induced IL-2 production in human whole blood; type: functional, organism-based
Rattus norvegicus [5] = assay: In vivo clearance after 5 mg/kg dose; type: ADME, organism-based; parameters: dose 5 mg/kg
[6] = Compound was evaluated for pharmacokinetic parameter volume of distribution; type: ADME, organism-based; conditions: rat, in vivo
[7] = Compound was evaluated for pharmacokinetic parameter percent bioavailability at 18 h; type: ADME, organism-based; conditions: rat, in vivo
[8] = Compound was evaluated for pharmacokinetic parameter maximum time period; type: ADME, organism-based; conditions: rat, in vivo
Rattus norvegicus [9] = organism: Rattus norvegicus; assay: Compound was evaluated for pharmacokinetic parameter maximum plasma concentration; type: ADME, organism-based; conditions: in vivo
[10] = biological target: T1, Vascular endothelial growth factor receptor 2; assay: Inhibition of Vascular endothelial growth factor receptor 2
[11] = biological target: Tyrosine-protein kinase Lck (Homo sapiens, UniProt P06239); assay: Inhibition of human p56 Lck tyrosine kinase
Chain of Tyrosine-protein kinase Lck (P06239 whole entry): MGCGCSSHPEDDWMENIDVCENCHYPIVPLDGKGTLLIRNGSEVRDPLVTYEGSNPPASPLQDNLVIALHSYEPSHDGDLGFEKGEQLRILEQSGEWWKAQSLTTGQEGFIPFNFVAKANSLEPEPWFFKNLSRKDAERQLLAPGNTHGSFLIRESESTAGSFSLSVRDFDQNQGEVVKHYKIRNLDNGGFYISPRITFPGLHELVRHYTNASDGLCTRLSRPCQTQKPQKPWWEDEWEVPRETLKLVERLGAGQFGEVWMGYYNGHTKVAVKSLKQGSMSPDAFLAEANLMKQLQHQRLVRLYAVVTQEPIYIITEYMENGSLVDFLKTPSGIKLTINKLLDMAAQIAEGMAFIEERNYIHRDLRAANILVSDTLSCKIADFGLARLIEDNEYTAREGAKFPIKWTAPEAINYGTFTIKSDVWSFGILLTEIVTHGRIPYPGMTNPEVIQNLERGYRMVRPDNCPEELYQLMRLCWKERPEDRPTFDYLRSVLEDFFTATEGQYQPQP

[12] = Compound was evaluated for pharmacokinetic parameter percent bioavailability at 8 h; type: ADME, organism-based; conditions: rat, in vivo
[13] = biological target: Proto-oncogene tyrosine-protein kinase Src (Homo sapiens, UniProt P12931); assay: Inhibition of Src protein tyrosine kinase
Chain of Proto-oncogene tyrosine-protein kinase Src (P12931 2-536 limits assumed): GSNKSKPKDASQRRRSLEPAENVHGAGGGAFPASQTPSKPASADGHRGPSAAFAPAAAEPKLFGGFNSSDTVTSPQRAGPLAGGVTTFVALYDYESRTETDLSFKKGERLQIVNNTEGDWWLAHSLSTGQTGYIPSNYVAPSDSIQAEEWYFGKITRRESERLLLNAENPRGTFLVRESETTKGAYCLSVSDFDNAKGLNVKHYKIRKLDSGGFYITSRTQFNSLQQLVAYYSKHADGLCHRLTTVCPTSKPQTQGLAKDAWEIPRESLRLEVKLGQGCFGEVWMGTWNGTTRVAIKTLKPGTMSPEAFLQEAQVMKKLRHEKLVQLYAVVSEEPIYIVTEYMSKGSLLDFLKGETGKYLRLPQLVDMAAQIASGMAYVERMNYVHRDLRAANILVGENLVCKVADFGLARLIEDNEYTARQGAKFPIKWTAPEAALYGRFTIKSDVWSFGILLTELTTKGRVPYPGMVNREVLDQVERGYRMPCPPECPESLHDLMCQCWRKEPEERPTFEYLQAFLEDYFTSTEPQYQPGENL

Angiopoietin-1 receptor = Angiopoietin-1 receptor (Homo sapiens, UniProt Q02763); assay: Inhibition of TIE-2 kinase
Chain of Angiopoietin-1 receptor (Q02763 whole entry): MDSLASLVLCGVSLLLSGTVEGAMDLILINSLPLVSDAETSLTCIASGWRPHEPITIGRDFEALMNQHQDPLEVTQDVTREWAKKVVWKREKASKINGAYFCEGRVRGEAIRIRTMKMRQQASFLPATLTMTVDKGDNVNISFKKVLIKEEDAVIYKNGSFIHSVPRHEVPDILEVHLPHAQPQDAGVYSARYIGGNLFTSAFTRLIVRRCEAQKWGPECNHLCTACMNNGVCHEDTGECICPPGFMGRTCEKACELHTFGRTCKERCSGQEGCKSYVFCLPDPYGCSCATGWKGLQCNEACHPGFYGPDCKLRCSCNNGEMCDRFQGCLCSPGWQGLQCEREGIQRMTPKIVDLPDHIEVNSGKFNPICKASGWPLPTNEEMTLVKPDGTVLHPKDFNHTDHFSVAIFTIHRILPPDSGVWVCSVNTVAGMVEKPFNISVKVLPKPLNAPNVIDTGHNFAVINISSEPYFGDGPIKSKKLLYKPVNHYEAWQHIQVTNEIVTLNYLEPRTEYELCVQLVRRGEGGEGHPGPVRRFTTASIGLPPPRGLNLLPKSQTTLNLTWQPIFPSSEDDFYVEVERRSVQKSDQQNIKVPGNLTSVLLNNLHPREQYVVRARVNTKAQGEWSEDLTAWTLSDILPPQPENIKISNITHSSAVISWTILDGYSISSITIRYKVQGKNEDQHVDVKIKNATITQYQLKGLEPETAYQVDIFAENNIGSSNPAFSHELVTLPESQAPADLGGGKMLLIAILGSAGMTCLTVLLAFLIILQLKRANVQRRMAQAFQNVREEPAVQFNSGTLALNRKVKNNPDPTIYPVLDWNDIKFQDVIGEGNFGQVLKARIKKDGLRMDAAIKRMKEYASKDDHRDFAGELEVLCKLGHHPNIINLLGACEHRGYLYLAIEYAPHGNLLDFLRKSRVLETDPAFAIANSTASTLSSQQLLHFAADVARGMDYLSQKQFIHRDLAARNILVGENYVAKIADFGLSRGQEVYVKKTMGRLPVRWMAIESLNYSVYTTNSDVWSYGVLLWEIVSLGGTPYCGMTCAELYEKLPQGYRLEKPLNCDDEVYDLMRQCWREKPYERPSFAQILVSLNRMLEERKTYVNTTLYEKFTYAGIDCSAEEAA

T1 sequence (P35968 whole entry): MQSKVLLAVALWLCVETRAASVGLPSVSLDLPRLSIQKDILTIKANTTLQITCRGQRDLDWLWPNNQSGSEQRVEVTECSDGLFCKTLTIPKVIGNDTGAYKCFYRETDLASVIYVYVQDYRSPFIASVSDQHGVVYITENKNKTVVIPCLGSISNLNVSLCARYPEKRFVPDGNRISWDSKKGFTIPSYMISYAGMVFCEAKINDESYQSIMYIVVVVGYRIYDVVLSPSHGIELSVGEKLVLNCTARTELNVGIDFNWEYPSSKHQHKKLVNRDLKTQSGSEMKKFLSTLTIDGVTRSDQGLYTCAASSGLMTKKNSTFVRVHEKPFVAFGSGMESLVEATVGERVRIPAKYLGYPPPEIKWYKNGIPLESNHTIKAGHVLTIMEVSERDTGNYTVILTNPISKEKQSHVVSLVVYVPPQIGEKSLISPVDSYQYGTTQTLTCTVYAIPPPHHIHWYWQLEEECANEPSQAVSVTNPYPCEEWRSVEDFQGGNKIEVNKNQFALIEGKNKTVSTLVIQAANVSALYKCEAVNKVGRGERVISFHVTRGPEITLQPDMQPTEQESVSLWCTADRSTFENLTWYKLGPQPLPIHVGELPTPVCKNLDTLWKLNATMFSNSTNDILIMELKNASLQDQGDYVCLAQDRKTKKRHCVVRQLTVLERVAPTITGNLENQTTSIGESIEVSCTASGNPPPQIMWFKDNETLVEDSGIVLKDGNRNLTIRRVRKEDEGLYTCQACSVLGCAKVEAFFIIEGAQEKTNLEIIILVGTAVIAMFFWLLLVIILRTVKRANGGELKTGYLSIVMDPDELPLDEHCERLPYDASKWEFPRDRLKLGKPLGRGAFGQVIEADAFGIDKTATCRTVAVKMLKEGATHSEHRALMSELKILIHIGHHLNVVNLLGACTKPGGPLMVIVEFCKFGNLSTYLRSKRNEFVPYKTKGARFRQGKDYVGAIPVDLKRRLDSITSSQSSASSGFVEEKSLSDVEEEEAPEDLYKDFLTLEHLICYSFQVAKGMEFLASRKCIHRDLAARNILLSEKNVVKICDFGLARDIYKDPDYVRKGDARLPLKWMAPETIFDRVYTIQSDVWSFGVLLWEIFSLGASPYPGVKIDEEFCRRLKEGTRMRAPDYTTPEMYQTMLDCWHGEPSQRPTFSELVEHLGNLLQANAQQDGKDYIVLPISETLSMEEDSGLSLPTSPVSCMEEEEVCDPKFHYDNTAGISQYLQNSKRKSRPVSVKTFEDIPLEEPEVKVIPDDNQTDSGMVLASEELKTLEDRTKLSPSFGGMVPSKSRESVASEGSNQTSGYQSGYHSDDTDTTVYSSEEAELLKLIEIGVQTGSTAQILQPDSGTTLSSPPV

| Compound | IC50 [1] | IC50 (Homo sapiens) | Inhibition (Mus musculus [2]) | Inhibition (Mus musculus [3]) | ED50 (Mus musculus [4]) | ED90 (Mus musculus [4]) | also measured |
| --- | --- | --- | --- | --- | --- | --- | --- |
| COc1cc(-c2nn([C@H]3CC[C@H](N4CCN(C)CC4)CC3)c3ncnc(N)c23)ccc1NC(=O)CC(C)(C)c1ccccc1 | 34.6 µM | 8 nM | 22% | 98% | 2 mg/kg | 12.5 mg/kg |  |
| COc1cc(-c2nn([C@H]3CC[C@H](N4CCN(C)CC4)CC3)c3ncnc(N)c23)ccc1NC(=O)CCc1ccccc1 | > 50 µM | 38 nM | <10% | 63% | 5 mg/kg | 30 mg/kg |  |
| COc1cc(-c2nn([C@H]3CC[C@H](N4CCN(C)CC4)CC3)c3ncnc(N)c23)ccc1NS(=O)(=O)c1ccccc1 | > 50 µM |  |  |  |  |  |  |
| COc1cc(Cc2nn([C@H]3CC[C@H](N4CCN(C)CC4)CC3)c3ncnc(N)c23)ccc1NC(=O)[C@@H]1C[C@H]1c1ccccc1 | > 50 µM |  |  |  |  |  |  |
| COc1cc(-c2nn([C@H]3CC[C@H](N4CCN(C)CC4)CC3)c3ncnc(N)c23)ccc1NC(=O)C(C)(C)Cc1ccccc1 | > 50 µM |  |  |  |  |  |  |
| COc1cc(-c2nn([C@H]3CC[C@H](N4CCN(C)CC4)CC3)c3ncnc(N)c23)ccc1NC(=O)c1cc2ccccc2o1 | > 50 µM | 6 nM | <10% | 48% | 8.5 mg/kg | 12.5 mg/kg |  |
| CN1CCN([C@H]2CC[C@H](n3nc(-c4ccc(Oc5ccccc5)cc4)c4c(N)ncnc43)CC2)CC1 |  |  | 49% | 84% | 1.5 mg/kg | 6 mg/kg | Clp (Rattus norvegicus [5]): 1.2 L/h/kg; Vd [6]: 9.6 L/kg; bioavailability [7]: 69%; Tmax [8]: 1.5 h; Cmax (Rattus norvegicus [9]): 0.62 uM l-1; IC50 [10]: 5.32 µM; IC50 [11]: 40 nM; half-life [12]: 312 min |
| CN1CCN([C@H]2CC[C@H](n3cc(-c4ccc(Oc5ccccc5)cc4)c4c(N)ncnc43)CC2)CC1 |  |  |  |  | 2.5 mg/kg |  | IC50 [13]: 42 nM; IC50 (Angiopoietin-1 receptor): 250 nM; IC50 [11]: 15 nM |
| COc1cc(-c2nn([C@H]3CC[C@H](N4CCN(C)CC4)CC3)c3ncnc(N)c23)ccc1NCc1ccccc1 |  |  |  |  |  |  | IC50 [10]: > 50 µM; IC50 [11]: 55 nM |
| COc1cc(-c2nn([C@H]3CC[C@H](N4CCN(C)CC4)CC3)c3ncnc(N)c23)ccc1NC(=O)Nc1ccccc1 | 0.263 µM |  |  |  |  |  |  |
| COc1cc(-c2nn([C@H]3CC[C@H](N4CCN(C)CC4)CC3)c3ncnc(N)c23)ccc1NC(=O)OCc1ccccc1 | 34.2 µM | 2 nM | 14% | 51% | 3 mg/kg | 14 mg/kg |  |

Now from value to compound, other results behind:

| IC50 [1] | IC50 (Homo sapiens) | Compound | Inhibition (Mus musculus [2]) | Inhibition (Mus musculus [3]) | ED50 (Mus musculus [4]) | ED90 (Mus musculus [4]) | also measured |
| --- | --- | --- | --- | --- | --- | --- | --- |
| > 50 µM | 50 nM | COc1cc(-c2nn([C@H]3CC[C@H](N4CCN(C)CC4)CC3)c3ncnc(N)c23)ccc1NC(=O)c1ccccc1 | <10% | 37% | 9 mg/kg | 23 mg/kg |  |
| 0.435 µM |  | CN1CCN([C@H]2CC[C@H](n3nc(-c4ccc(NCc5cc6ccccc6[nH]5)cc4)c4c(N)ncnc43)CC2)CC1 |  |  |  |  |  |
| > 50 µM |  | CN1CCN([C@H]2CC[C@H](n3nc(-c4ccc(C(=O)c5ccccc5)cc4)c4c(N)ncnc43)CC2)CC1 |  |  |  |  |  |
| 3.81 µM | 135 nM | CN1CCN([C@H]2CC[C@H](n3nc(-c4ccc(Nc5ccccc5)cc4)c4c(N)ncnc43)CC2)CC1 | <10% | 95% | 2.5 mg/kg | 10.7 mg/kg |  |
